Laboratory results published in US5536719A, “Benzothiadiazine compound” (Adir et Compagnie, priority 1994, dated 1996).

Tests used:
[1] = system: slice of hippocampus (dentate gyrus EPSP); assay: excitatory postsynaptic potentials (EPSP) induced by electrical stimulation on a slice of hippocampus; format: cell-based, male Wistar rat; conditions: compared with reference compounds, racemic mixture and R isomer
Procedure: Study of the synaptic excitatory potentials induced by electrical stimulation on a slice of hippocampus
Transverse slices of hippocampus ([…]) from a male Wistar rat are prepared using a "tissue chopper" and then incubated for 45 minutes in calcium-free medium containing 10 mM Mg^++. They are then stabilized in Krebs adjusted to pH 7.35 and oxygenated with O2 /CO2 (95%/5%) at room temperature.
The slices are submerged at 35° C. and the excitatory postsynaptic potentials (EPSP) are recorded in the dendritic field of the […] of the dentate gyms during stimulation ([…]) every 30 seconds of the perforating route via a tungsten bipolar electrode.
The EPSPs are acquired and analyzed by means of an A-D converter, a TL-1 interface and "pCLAMP" software.
The amplitude and duration of the EPSPs are evaluated on the negative wave relative to the base current.
The compounds are applied for 10 to 20 minutes in the superfusion bath containing MgSO4 (1 mM) in order to block the activation of the NMDA receptors. The concentration increasing the amplitude of the EPSP by 50% (A50) is determined for each compound.

[2] = system: AMPA receptor (rat cortex mRNA expressed in Xenopus oocytes); assay: excitatory currents induced by AMPA in Xenopus oocytes (voltage-clamp); format: cell-based, rat (male Wistar) receptors expressed in Xenopus oocytes; conditions: for EC2X (concentration which doubles the intensity of the current induced by AMPA alone) / EC5X (concentration which increases five-fold the intensity of the current induced by AMPA alone): Xenopus oocytes, rat cortex mRNA, agonist AMPA (30 mM [sic])
Procedure: Study of the excitatory currents induced by AMPA in Xenopus oocytes mRNAs are prepared from male Wistar rat cerebral cortex by the guanidium thiocyanate/phenol/chloroform method. The poly(A^+) mRNAs are isolated by chromatography on oligo-dT cellulose and injected at an amount of 50 ng per oocyte. The oocytes are left to incubate for 2 to 3 days at 18° C. in order to allow expression of the receptors, and are then stored at 8°-10° C. The electrophysiological recording is performed in a plexiglass® chamber at 20°-24° C. in OR2 medium (J. Exp. Zool., 1973, 184, 321-334) by the "voltage-clamp" method with 2 electrodes, a 3rd electrode placed in the bath serving as reference. All the compounds are applied via the incubation medium and the electric current is measured at the end of the period of application. The AMPA is used at a concentration of […]. The concentration which doubles (EC2X) or which increases five-fold (EC5X) the intensity of the current induced by AMPA alone (50 to 100 nA) is determined for each compound studied.

NMDA = assay: currents induced by NMDA in Xenopus oocytes (selectivity); format: cell-based, rat (male Wistar) receptors expressed in Xenopus oocytes
kainate (KA) = assay: currents induced by kainate (KA) in Xenopus oocytes (selectivity); format: cell-based, rat (male Wistar) receptors expressed in Xenopus oocytes
[3] = Il Farmaco, Ed. Sc., 1978, 33, 713-720; cited from earlier work
[4] = system: AMPA receptors of neuronal cells; conditions: Journal of Neurochemistry, 1992, 58, 1199-1204; cited from earlier work

SMILES	EC2X (concentration which doubles the intensity of the current induced by AMPA alone) [2] [µM]	EC5X (concentration which increases five-fold the intensity of the current induced by AMPA alone) [2] [µM]	further results
O=S1(=O)N[C@H]2CCCN2c2ccccc21 [Example 1, (3aS)-5,5-Dioxo-2,3,3a,4-tetrahydro-1H-pyrrolo[2,1-c][1,2,4]benzothiadiazine]	35	70	increase of the amplitude of the EPSP [1]: increases the amplitude of the EPSP at lower doses than the reference compounds, the racemic mixture or the R isomer; potentiation of the excitatory effects of AMPA ([2]; compared with reference compounds, racemic mixture and R isomer): very strongly potentiates the excitatory effects of AMPA; EC2X, AMPA ([2]; selectivity table, agonist AMPA): 35 µM; potentiation of the current (NMDA agonist) (NMDA): no potentiation of the current is observed; EC2X, NMDA (NMDA; selectivity table, agonist NMDA): > 300 µM; potentiation of the current (KA agonist) (kainate (KA)): no potentiation of the current is observed; EC2X, KA (kainate (KA); selectivity table, agonist kainate (KA)): > 300 µM
O=S1(=O)N[C@@H]2CCCN2c2ccccc21 [R isomer]	300	> 1000	
O=S1(=O)NC2CCCN2c2ccccc21 (racemic) [Racemic mixture, 5,5-Dioxo-2,3,3a,4-tetrahydro-1H-pyrrolo[2,1-c]-[1,2,4]benzothiadiazine, reference compound]	60	160	hypotensive and bradycardiac activities [3]: having hypotensive and bradycardiac activities
CC1=NS(=O)(=O)c2cc(Cl)ccc2N1 [Diazoxide, reference compound]	400	1000	
COc1ccc(C(=O)N2CCCC2=O)cc1 [Aniracetam, reference compound]	1300	5000	modulation of AMPA receptors of neuronal cells [4]: positively modulating the AMPA receptors of neuronal cells
